Laboratory results published in ChEMBL document CHEMBL1138707, “Bridgehead modification of trihalocycloheptabenzopyridine leads to a potent farnesyl protein transferase inhibitor with improved oral metabolic stability” (Bioorg Med Chem Lett, 2004).

Legend:
[1] = Inhibition of H-Ras transformed NIH3T3 cell proliferation; format: functional, cell-based
[2] = Inhibition of COS cell proliferation; format: functional, cell-based
[3] = Inhibition of soft agar colony formation in H-Ras transformed cells; format: functional, cell-based
[4] = Oral bioavailability in rat; format: ADME, organism-based; conditions: in vivo
[5] = Area under the curve in rats by administering perorally; format: ADME; conditions: rat, in vivo, po
[6] = target: T1, Protein farnesyltransferase (Homo sapiens, UniProt P49354+P49356); experiment: Inhibition of [3H]FPP incorporation into H-ras CVLS by Farnesyltransferase; format: protein-complex assay
[7] = target: T1, Protein farnesyltransferase; experiment: Percent inhibition of [3H]FPP incorporation into H-ras CVLS by Farnesyltransferase at 17; format: protein-complex assay; conditions: concentration not given here

| Compound | IC50 [3] | AUC [5] | also measured |
| --- | --- | --- | --- |
| NC(=O)N1CCC(CC(=O)N2CCC([C@H]3c4ncc(Br)cc4CCc4cc(Cl)cc(Br)c43)CC2)CC1 [LONAFARNIB] | 70 nM | 24.1 µg/h/mL | IC50 [1]: 72 µM; IC50 [2]: 10 nM; bioavailability [4]: 76% |
| O=C(Cc1cc[n+]([O-])cc1)N1CCC([C@H]2c3ncc(Br)cc3C=Cc3cc(Cl)cc(Br)c32)CC1 |  |  | inhibition [7]: 44% |

Now from value to molecule, other results behind:

| IC50 [3] | AUC [5] | Compound | also measured |
| --- | --- | --- | --- |
| > 500 nM | 45.4 µg/h/mL | CS(=O)(=O)N1CCC([C@@H]2c3ncc(Br)cc3C=Cc3cc(Cl)cc(Br)c32)CC1 |  |
| 30 nM | 15.5 µg/h/mL | O=C(Cc1cc[n+]([O-])cc1)N1CCC([C@@H]2c3ncc(Br)cc3C=Cc3cc(Cl)cc(Br)c32)CC1 | IC50 [6]: 0.32 nM |
|  | 7 µg/h/mL | NC(=O)N1CCC(CC(=O)N2CCC([C@@H]3c4ncc(Br)cc4C=Cc4cc(Cl)cc(Br)c43)CC2)CC1 |  |
